US6177438A, “Morphinan derivatives and pharmaceutical use thereof” (priority 1993, dated 2001)
Structures can show the parent of a compound that is named as a salt.

Key:
[1] = Diuretic action (urine output for 5 hours after physiological saline loading in rats); format: in vivo, male Wistar rats; details: for ED (200% urine output) / ED (500% urine output): Rattus norvegicus, sc, 5 hours after saline 20 ml/kg p.o.; for ED (200% urine output): dose giving urine output of 200 (non-dosed group = 100); for ED (500% urine output): dose giving urine output of 500 (non-dosed group = 100)
Protocol: 7-8 week old male Wistar rats were used in this test after prohibiting from drinking water for 1 hour before the start of testing. After discharging any urine accumulated in the bladder by gently stimulating the lower abdomens of the animals, the drug was administered subcutaneously. After 30 minutes, the animals were then forcibly given 20 ml/kg of physiological saline orally. The animals were placed in metabolic cages immediately after administration of the drug (2 animals/cage) and urine output for 5 hours after loading with physiological saline was measured. Drug efficacy was expressed in the form of those doses resulting in urine outputs of 200 and 500, respectively, when the urine output of a non-dosed group was taken to be 100. Those doses were expressed as the ED200 and ED500 values, respectively.

[2] = test system: acetic acid-induced writhing in ddy mice; assay: animal or person; format: in vivo, 5 week old ddy mice; details: for ED50: Mus musculus, sc, s.c. 15 minutes before acetic acid, read-out: ED50
Protocol: 5 week old ddy mice were used in this test. After intraperitoneal administration of 0.1 ml of 0.6% aqueous acetic acid per 10 g of body weight, the number of writhing reactions that occurred in 10 minutes starting 10 minutes after administration was evaluated for the indicator. The test drug was administered subcutaneously into the backs of the animals 15 minutes before administration of acetic acid.

Row | SMILES | ED (200% urine output) [1] | ED (500% urine output) [1] | ED50 [2] | Diuretic action (in words) ([1]; s.c., from ED200 values) | analgesic activity ([2]; s.c., in words)
1 | CN(C(=O)Cc1cccc([N+](=O)[O-])c1)[C@H]1CC[C@@]2(O)[C@H]3Cc4ccc(O)c5c4[C@@]2(CCN3CC2CC2)[C@H]1O5 [Compound 83, 17-Cyclopropylmethyl-3,14β-dihydroxy-4,5α-epoxy-6α-(N-methyl-3-nitrophenylacetamido)morphinan.cndot.hydrochloride] | 0.0261 mg/kg | 2.99 mg/kg | 0.008 mg/kg |  | 
2 | CCC/C=C/C(=O)N(C)[C@H]1CC[C@@]2(O)[C@H]3Cc4ccc(O)c5c4[C@@]2(CCN3CC2CC2)[C@H]1O5 [Compound 95, 17-cyclopropylmethyl-3,14β-dihydroxy-4,5α-epoxy-6α-(N-methyl-trans-2-hexenamido)morphinan.cndot.tartrate] | 0.0028 mg/kg | 0.0968 mg/kg | 0.0081 mg/kg |  | 
3 | CN(C(=O)Cc1ccc(Br)cc1)[C@H]1CC[C@@]2(O)[C@H]3Cc4ccc(O)c5c4[C@@]2(CCN3CC2CC2)[C@H]1O5 [Compound 28, 17-cyclopropylmethyl-3,14β-dihydroxy-4,5α-epoxy-6α-(N-methyl-4-bromophenylacetamido)morphinan.cndot.hydrobromide] | 0.02 mg/kg | 3.8 mg/kg | 0.071 mg/kg |  | 
4 | CN(C(=O)Cc1csc2ccccc12)[C@H]1CC[C@@]2(O)[C@H]3Cc4ccc(O)c5c4[C@@]2(CCN3CC2CC2)[C@H]1O5 [Compound 107, 17-cyclopropylmethyl-3,14β-dihydroxy-4,5α-epoxy-6α-(N-methyl-3-benzo[b]thienylacetamido)morphinan.cndot.hydrochloride] | 0.0061 mg/kg | 0.2 mg/kg | 0.023 mg/kg |  | 
5 | CN(C(=O)c1ccc(Cl)c(Cl)c1)[C@H]1CC[C@@]2(O)[C@H]3Cc4ccc(O)c5c4[C@@]2(CCN3CC2CC2)[C@H]1O5 [Compound 27, 17-cyclopropylmethyl-3,14β-dihydroxy-4,5α-epoxy-6α-(N-methyl-3,4-dichlorobenzamido)morphinan.cndot.hydrochloride] | 0.0248 mg/kg | 2.08 mg/kg | 0.046 mg/kg |  | 
6 | CN(C(=O)Cc1cccc(F)c1)[C@H]1CC[C@@]2(O)[C@H]3Cc4ccc(O)c5c4[C@@]2(CCN3CC2CC2)[C@H]1O5 [Compound 37, 17-cyclopropylmethyl-3,14β-dihydroxy-4,5α-epoxy-6α-(N-methyl-3-fluorophenylacetamido)morphinan.cndot.hydrochloride] | 0.365 mg/kg |  | 0.0041 mg/kg |  | 
7 | CN(C(=O)CSc1ccccc1)[C@@H]1CC[C@@]2(O)[C@H]3Cc4ccc(O)c5c4[C@@]2(CCN3CC2CC2)[C@H]1O5 [Compound 65, 17-cyclopropylmethyl-3,14β-dihydroxy-4,5α-epoxy-6β-(N-methylthiophenoxyacetamido)morphinan.cndot.tartrate] | 0.119 mg/kg | 5.31 mg/kg | 0.15 mg/kg |  | 
8 | CN(C(=O)/C=C/c1ccc(Cl)c(Cl)c1)[C@H]1CC[C@@]2(O)[C@H]3Cc4ccc(O)c5c4[C@@]2(CCN3CC2CC2)[C@H]1O5 [Compound 86, 17-cyclopropylmethyl-3,14β-dihydroxy-4,5α-epoxy-6α-(N-methyl-3,4-dichlorocinnamamido)morphinan.cndot.hydrochloride] | 0.0057 mg/kg | 0.229 mg/kg | 0.0347 mg/kg |  | 
9 | CN(C(=O)Cc1cccc(Br)c1)[C@H]1CC[C@@]2(O)[C@H]3Cc4ccc(O)c5c4[C@@]2(CCN3CC2CC2)[C@H]1O5 [Compound 26, 17-cyclopropylmethyl-3,14β-dihydroxy-4,5α-epoxy-6α-(N-methyl-3-bromophenylacetamido)morphinan.cndot.hydrobromate] |  |  | 0.099 mg/kg |  | 
10 | CN(C(=O)Cc1ccc(N)cc1)[C@H]1CC[C@@]2(O)[C@H]3Cc4ccc(O)c5c4[C@@]2(CCN3CC2CC2)[C@H]1O5 [Compound 137, 17-cyclopropylmethyl-3,14β-dihydroxy-4,5α-epoxy-6α-(N-methyl-4-aminophenylacetamido)morphinanan.cndot.1.6 hydrochloride] |  |  | 0.17 mg/kg |  | 
11 | CN(C(=O)/C=C/C1CCCCC1)[C@H]1CC[C@@]2(O)[C@H]3Cc4ccc(O)c5c4[C@@]2(CCN3CC2CC2)[C@H]1O5 [Compound 50, 17-cyclopropylmethyl-4,5α-epoxy-3,14β-dihydroxy-6α-(N-methyl-trans-3-cyclohexylacrylamido)morphinan.cndot.hydrochloride] | 0.0021 mg/kg | 0.0325 mg/kg | 0.011 mg/kg |  | 
12 | CN(C(=O)Cc1ccc([N+](=O)[O-])cc1)[C@H]1CC[C@@]2(O)[C@H]3Cc4ccc(O)c5c4[C@@]2(CCN3CC2CC2)[C@H]1O5 [Compound 87, 17-cyclopropylmethyl-3,14β-dihydroxy-4,5α-epoxy-6α-(N-methyl-4-nitrophenylacetamido)morphinan.cndot.hydrochloride] |  |  | 0.027 mg/kg |  | 
13 | Cc1ccc(/C=C/C(=O)N(C)[C@@H]2CC[C@@]3(O)[C@H]4Cc5ccc(O)c6c5[C@@]3(CCN4CC3CC3)[C@H]2O6)o1.Cl (relative stereo) [Compound 158, 17-cyclopropylmethyl-3,14β-dihydroxy-4,5α-epoxy-6β-[N-methyl-trans-3-(5-methyl-2-furyl)acrylamido]morphinan hydrochloride] |  |  | 0.0071 mg/kg |  | 
14 | CN(C(=O)/C=C/c1ccsc1)[C@@H]1CC[C@@]2(O)[C@H]3Cc4ccc(O)c5c4[C@@]2(CCN3CC2CC2)[C@H]1O5 [Compound 71, 17-cyclopropylmethyl-3,14β-dihydroxy-4,5α-epoxy-6β-[N-methyl-trans-3-(3-thienyl)acrylamido]morphinan.cndot.methanesulfonate] |  |  | 0.0042 mg/kg |  | 
15 | CN(C(=O)CCCCc1ccccc1)[C@@H]1CC[C@@]2(O)[C@H]3Cc4ccc(O)c5c4[C@@]2(CCN3CC2CC2)[C@H]1O5 [Compound 203, 17-cyclopropylmethyl-3,14β-dihydroxy-4,5α-epoxy-6β-(N-methyl-5-phenylpentanoamido)morphinan hydrochloride] |  |  | 0.38 mg/kg |  | 
16 | CN(C(=S)NCc1ccccc1)[C@@H]1CC[C@@]2(O)[C@H]3Cc4ccc(O)c5c4[C@@]2(CCN3CC2CC2)[C@H]1O5 [Compound 134, 17-cyclopropylmethyl-3,14β-dihydroxy-4,5α-epoxy-6β-(N-methyl-N'-benzylthioureido)morphinan.cndot.tartrate] |  |  | 0.15 mg/kg |  | 
17 | C/C=C/C=C/C(=O)N(C)[C@@H]1CC[C@@]2(O)[C@H]3Cc4ccc(O)c5c4[C@@]2(CCN3CC2CC2)[C@H]1O5 [Compound 178, 17-cyclopropylmethyl-3,14β-dihydroxy-4,5α-epoxy-6β-(N-methyl-trans,trans-2,4-hexadienoylamido)morphinan tartrate] | 0.00094 mg/kg | 0.0045 mg/kg | 0.0016 mg/kg | extremely strong diuretic action | particularly strong analgesic activity
18 | CN(C(=O)CCC1CCCCC1)[C@H]1CC[C@@]2(O)[C@H]3Cc4ccc(O)c5c4[C@@]2(CCN3CC2CC2)[C@H]1O5 [Compound 94, 17-cyclopropylmethyl-3,14β-dihydroxy-4,5α-epoxy-6α-(N-methyl-3-cyclohexylpropionamido)morphinan.cndot.hydrochloride] |  |  | 0.013 mg/kg |  | 
19 | CN(C(=O)NCc1ccccc1)[C@H]1CC[C@@]2(O)[C@H]3Cc4ccc(O)c5c4[C@@]2(CCN3CC2CC2)[C@H]1O5 [Compound 132, 17-Cyclopropylmethyl-3,14β-dihydroxy-4,5α-epoxy-6α-(N-methyl-N'-benzylureido)morphinan.cndot.tartrate] |  |  | 0.073 mg/kg |  | 
